These compounds were tested against T1, hNav1.7 and the β1 subunit (Homo sapiens, UniProt Q15858) (assay: Tritiated compound competitive binding to membranes from cells heterologously expressing hNav1.7 and the β1 subunit (LBA)). Conditions: competition with 100 pM [3H]compound, 18 h, room temperature; IC50 by 4 parameter logistic model.
T1 construct: expressed in transfected cells
In short: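 Membranes were incubated 18 h at room temperature with 100 pM [3H]-labelled NaV1.7 inhibitor and increasing test compound in 100 mM NaCl, 20 mM Tris HCl, pH 7.4. Bound radioligand was filtered on PEI-soaked GF/C, washed, and counted by scintillation. IC50 from a 4-parameter logistic fit of % inhibition.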

T1 sequence (Q15858 whole entry): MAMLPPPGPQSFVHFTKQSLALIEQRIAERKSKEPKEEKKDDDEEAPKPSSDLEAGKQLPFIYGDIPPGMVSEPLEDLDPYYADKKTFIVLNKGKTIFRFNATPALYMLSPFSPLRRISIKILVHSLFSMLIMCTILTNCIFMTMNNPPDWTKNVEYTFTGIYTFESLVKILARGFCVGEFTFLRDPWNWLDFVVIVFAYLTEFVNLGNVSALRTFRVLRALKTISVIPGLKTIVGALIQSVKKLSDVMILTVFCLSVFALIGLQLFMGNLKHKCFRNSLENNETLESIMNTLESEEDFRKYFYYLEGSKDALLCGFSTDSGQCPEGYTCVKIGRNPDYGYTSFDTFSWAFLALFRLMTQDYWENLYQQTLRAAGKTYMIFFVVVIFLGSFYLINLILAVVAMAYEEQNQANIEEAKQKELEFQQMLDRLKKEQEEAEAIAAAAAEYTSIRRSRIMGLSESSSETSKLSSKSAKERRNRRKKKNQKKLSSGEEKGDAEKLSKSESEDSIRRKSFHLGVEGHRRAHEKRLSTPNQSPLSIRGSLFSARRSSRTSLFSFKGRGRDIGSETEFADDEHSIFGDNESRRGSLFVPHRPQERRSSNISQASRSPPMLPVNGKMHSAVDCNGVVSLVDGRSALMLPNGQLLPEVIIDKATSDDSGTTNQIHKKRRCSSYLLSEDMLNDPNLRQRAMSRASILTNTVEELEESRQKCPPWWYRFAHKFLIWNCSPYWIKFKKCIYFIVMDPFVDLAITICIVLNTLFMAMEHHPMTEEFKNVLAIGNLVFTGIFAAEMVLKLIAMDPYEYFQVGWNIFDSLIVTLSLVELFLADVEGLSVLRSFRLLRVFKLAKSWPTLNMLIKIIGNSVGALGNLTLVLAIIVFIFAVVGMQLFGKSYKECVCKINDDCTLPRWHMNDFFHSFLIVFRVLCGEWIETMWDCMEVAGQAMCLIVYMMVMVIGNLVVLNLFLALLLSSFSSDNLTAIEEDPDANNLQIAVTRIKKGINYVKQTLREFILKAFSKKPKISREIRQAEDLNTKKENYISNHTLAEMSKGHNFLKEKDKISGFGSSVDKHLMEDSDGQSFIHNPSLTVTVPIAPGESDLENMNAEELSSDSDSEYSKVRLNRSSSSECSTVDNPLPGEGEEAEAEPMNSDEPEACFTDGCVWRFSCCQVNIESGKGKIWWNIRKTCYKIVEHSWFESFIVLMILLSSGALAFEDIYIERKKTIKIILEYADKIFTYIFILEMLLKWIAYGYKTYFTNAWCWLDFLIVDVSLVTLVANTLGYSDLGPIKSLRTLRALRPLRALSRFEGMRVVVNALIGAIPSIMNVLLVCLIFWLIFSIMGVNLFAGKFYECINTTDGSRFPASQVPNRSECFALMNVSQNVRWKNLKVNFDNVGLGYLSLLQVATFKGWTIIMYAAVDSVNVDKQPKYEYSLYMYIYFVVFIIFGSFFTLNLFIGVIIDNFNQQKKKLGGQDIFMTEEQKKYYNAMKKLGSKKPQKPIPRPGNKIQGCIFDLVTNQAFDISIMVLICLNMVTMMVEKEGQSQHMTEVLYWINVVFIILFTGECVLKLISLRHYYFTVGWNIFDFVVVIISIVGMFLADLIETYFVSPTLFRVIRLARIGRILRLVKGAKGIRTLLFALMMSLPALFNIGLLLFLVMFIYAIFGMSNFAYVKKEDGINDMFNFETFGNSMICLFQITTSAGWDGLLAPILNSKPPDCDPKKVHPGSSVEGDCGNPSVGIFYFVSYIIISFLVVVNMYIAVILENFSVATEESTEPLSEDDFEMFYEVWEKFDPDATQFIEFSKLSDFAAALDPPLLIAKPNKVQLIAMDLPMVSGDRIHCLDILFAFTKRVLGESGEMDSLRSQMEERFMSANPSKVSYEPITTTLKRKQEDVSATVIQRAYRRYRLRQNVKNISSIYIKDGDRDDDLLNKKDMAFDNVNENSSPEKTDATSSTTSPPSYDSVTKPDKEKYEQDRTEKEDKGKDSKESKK
T1 sequence (Q07699 19-218 partner): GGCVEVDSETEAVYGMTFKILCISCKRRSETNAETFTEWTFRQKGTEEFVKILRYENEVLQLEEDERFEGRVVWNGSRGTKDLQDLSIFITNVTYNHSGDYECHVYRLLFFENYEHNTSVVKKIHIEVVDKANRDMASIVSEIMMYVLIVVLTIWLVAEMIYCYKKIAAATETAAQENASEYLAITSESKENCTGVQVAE

Row | SMILES | Nav1.7 (LBA)
1 | O=S(=O)(Nc1nccs1)c1cc2c(cc1F)[C@H](N1CC[C@@H](C(F)(F)F)C[C@H]1c1ccncc1)CCO2 [Example 195, (R)-6-fluoro-4-((2S,4R)-2-(pyridin-4-yl)-4-(trifluoromethyl)piperidin-1-yl)-N-(thiazol-2-yl)chroman-7-sulfonamide] | 0.0901 µM
2 | O=S(=O)(Nc1nccs1)c1cc2c(cc1F)[C@H](N1CC[C@@H](C(F)(F)F)C[C@H]1c1ccc(F)c(F)c1)CCO2 [Example 197, (R)-4-((2S,4R)-2-(3,4-difluorophenyl)-4-(trifluoromethyl)piperidin-1-yl)-6-fluoro-N-(thiazol-2-yl)chroman-7-sulfonamide] | 0.351 µM
3 | O=S(=O)(Nc1nccs1)c1cc2c(cc1F)[C@@H](N1CC[C@@H](C(F)(F)F)C[C@H]1c1ccc(F)c(F)c1)CCO2 [Example 198, (S)-4-((2S,4R)-2-(3,4-difluorophenyl)-4-(trifluoromethyl)piperidin-1-yl)-6-fluoro-N-(thiazol-2-yl)chroman-7-sulfonamide] | 0.000649 µM
4 | Cn1cc([C@@H]2C[C@H](C(F)(F)F)CCN2[C@H]2CCOc3cc(S(=O)(=O)Nc4ncns4)ccc32)cn1 [Example 201, (S)-4-((2S,4R)-2-(1-methyl-1H-pyrazol-4-yl)-4-(trifluoromethyl)piperidin-1-yl)-N-(1,2,4-thiadiazol-5-yl)chroman-7-sulfonamide] | 0.0037 µM
5 | Cc1cc([C@@H]2C[C@H](C(F)(F)F)CCN2[C@H]2CCOc3cc(S(=O)(=O)Nc4ncns4)ccc32)n(C)n1 [Example 203, (S)-4-((2S,4R)-2-(1,3-dimethyl-1H-pyrazol-5-yl)-4-(trifluoromethyl)piperidin-1-yl)-N-(1,2,4-thiadiazol-5-yl)chroman-7-sulfonamide] | 0.00824 µM
6 | O=S(=O)(Nc1ncns1)c1ccc2c(c1)OCC[C@@H]2N1CC[C@@H](C(F)(F)F)C[C@H]1c1ccc(F)c(Cl)c1 [Example 204, (S)-4-((2S,4R)-2-(3-chloro-4-fluorophenyl)-4-(trifluoromethyl)piperidin-1-yl)-N-(1,2,4-thiadiazol-5-yl)chroman-7-sulfonamide] | 0.00398 µM
7 | NC(=O)c1cccc([C@@H]2C[C@H](C(F)(F)F)CCN2[C@H]2CCOc3cc(S(=O)(=O)Nc4ncns4)ccc32)c1 [Example 205, 3-((2S,4R)-1-((S)-7-(N-(1,2,4-thiadiazol-5-yl)sulfamoyl)chroman-4-yl)-4-(trifluoromethyl)piperidin-2-yl)benzamide] | 0.000907 µM
8 | O=S(=O)(Nc1ncns1)c1ccc2c(c1)OCC[C@@H]2NC(CCC(F)(F)F)c1ccccc1 (stereo partly drawn) [Example 207, (4S)—N-(1,2,4-thiadiazol-5-yl)-4-((4,4,4-trifluoro-1-phenylbutyl)amino)chroman-7-sulfonamide] | 0.039 µM
9 | O=S(=O)(Nc1nccs1)c1cc2c(cc1F)[C@@H](N1CC[C@H](C(F)(F)F)C[C@@H]1c1ccn[nH]1)CCO2 [Example 212, (S)-4-((2R,4S)-2-(1H-pyrazol-5-yl)-4-(trifluoromethyl)piperidin-1-yl)-6-fluoro-N-(thiazol-2-yl)chromane-7-sulfonamide] | 0.0033 µM
10 | O=S(=O)(Nc1nccs1)c1cc2c(cc1F)[C@H](N1CC[C@H](C(F)(F)F)C[C@@H]1c1ccn[nH]1)CCO2 [Example 213, (R)-4-((2R,4S)-2-(1H-pyrazol-5-yl)-4-(trifluoromethyl)piperidin-1-yl)-6-fluoro-N-(thiazol-2-yl)chromane-7-sulfonamide] | 0.0274 µM
11 | O=S(=O)(Nc1nccs1)c1cc2c(cc1F)[C@H](N1CC[C@@H](C(F)(F)F)C[C@H]1c1ccc(F)cc1)CCO2 [Example 214, (R)-6-fluoro-4-((2S,4R)-2-(4-fluorophenyl)-4-(trifluoromethyl)piperidin-1-yl)-N-(thiazol-2-yl)chromane-7-sulfonamide] | 0.00144 µM
12 | CC(C)(C)OC(=O)N1CCN([C@H]2CCOc3cc(S(=O)(=O)Nc4ncns4)ccc32)[C@H](c2ccc(F)cc2)C1 [Example 217, tert-butyl (R)-4-((S)-7-(N-(1,2,4-thiadiazol-5-yl)sulfamoyl)chroman-4-yl)-3-(4-fluorophenyl)piperazine-1-carboxylate] | 0.0183 µM
13 | O=S(=O)(Nc1ncns1)c1ccc2c(c1)OCC[C@H]2N1CCN(CC(F)(F)F)C[C@H]1c1ccc(F)cc1 [Example 220, (R)-4-((R)-2-(4-fluorophenyl)-4-(2,2,2-trifluoroethyl)piperazin-1-yl)-N-(1,2,4-thiadiazol-5-yl)chromane-7-sulfonamide] | 0.0494 µM
14 | O=S(=O)(Nc1ncns1)c1ccc2c(c1)OCC[C@@H]2N1CCN(CC(F)F)C[C@H]1c1ccc(F)cc1 [Example 222, (S)-4-((R)-4-(2,2-difluoroethyl)-2-(4-fluorophenyl)piperazin-1-yl)-N-(1,2,4-thiadiazol-5-yl)chromane-7-sulfonamide] | 0.0262 µM
15 | O=S(=O)(Nc1ncns1)c1ccc2c(c1)OCC[C@@H]2N1CCN(CCF)C[C@H]1c1ccc(F)cc1 [Example 223, (S)-4-((R)-4-(2-fluoroethyl)-2-(4-fluorophenyl)piperazin-1-yl)-N-(1,2,4-thiadiazol-5-yl)chromane-7-sulfonamide] | 0.125 µM
16 | O=S(=O)(Nc1ncns1)c1ccc2c(c1)OCC[C@@H]2N1CCN(S(=O)(=O)C(F)(F)F)C[C@H]1c1ccc(F)cc1 [Example 225, (S)-4-((R)-2-(4-fluorophenyl)-4-((trifluoromethyl)sulfonyl)piperazin-1-yl)-N-(1,2,4-thiadiazol-5-yl)chromane-7-sulfonamide] | 0.0057 µM

Further lines, results first:

Row | Nav1.7 (LBA) | SMILES
17 | 0.11 µM | O=S(=O)(Nc1nccs1)c1cc2c(cc1F)[C@H](N1CC[C@@H](C(F)(F)F)C[C@H]1c1cn[nH]c1)CCO2 [Example 199, (R)-4-((2S,4R)-2-(1H-pyrazol-4-yl)-4-(trifluoromethyl)piperidin-1-yl)-6-fluoro-N-(thiazol-2-yl)chroman-7-sulfonamide]
18 | 0.000515 µM | Nc1cccc([C@@H]2C[C@H](C(F)(F)F)CCN2[C@H]2CCOc3cc(S(=O)(=O)Nc4nccs4)c(F)cc32)n1 [Example 206, (S)-4-((2S,4R)-2-(6-aminopyridin-2-yl)-4-(trifluoromethyl)piperidin-1-yl)-6-fluoro-N-(thiazol-2-yl)chroman-7-sulfonamide]
19 | 0.0683 µM | O=S(=O)(Nc1nccs1)c1cc2c(cc1F)[C@H](N1CC[C@H](C(F)(F)F)C[C@@H]1c1ccc(F)cc1)CCO2 [Example 209, (R)-6-fluoro-4-((2R,4S)-2-(4-fluorophenyl)-4-(trifluoromethyl)piperidin-1-yl)-N-(thiazol-2-yl)chromane-7-sulfonamide]
20 | 0.0375 µM | O=S(=O)(Nc1nccs1)c1cc2c(cc1F)[C@H](N1CC[C@@H](C(F)(F)F)C[C@H]1c1ccn[nH]1)CCO2 [Example 210, (R)-4-((2S,4R)-2-(1H-pyrazol-5-yl)-4-(trifluoromethyl)piperidin-1-yl)-6-fluoro-N-(thiazol-2-yl)chromane-7-sulfonamide]
21 | 0.633 µM | O=S(=O)(Nc1nccs1)c1cc2c(cc1F)[C@@H](N1CC[C@H](C(F)(F)F)C[C@@H]1c1ccc(F)cc1)CCO2 [Example 215, (S)-6-fluoro-4-((2R,4S)-2-(4-fluorophenyl)-4-(trifluoromethyl)piperidin-1-yl)-N-(thiazol-2-yl)chromane-7-sulfonamide]
22 | 0.213 µM | CC(C)(C)OC(=O)N1CCN([C@@H]2CCOc3cc(S(=O)(=O)Nc4ncns4)ccc32)[C@H](c2ccc(F)cc2)C1 [Example 216, Tert-butyl (R)-4-((R)-7-(N-(1,2,4-thiadiazol-5-yl)sulfamoyl)chroman-4-yl)-3-(4-fluorophenyl)piperazine-1-carboxylate]
23 | 0.0941 µM | O=S(=O)(Nc1ncns1)c1ccc2c(c1)OCC[C@@H]2N1CCNC[C@H]1c1ccc(F)cc1 [Example 218, (S)-4-((R)-2-(4-fluorophenyl)piperazin-1-yl)-N-(1,2,4-thiadiazol-5-yl)chromane-7-sulfonamide]
24 | 0.00778 µM | O=S(=O)(Nc1ncns1)c1ccc2c(c1)OCC[C@@H]2N1CCN(CC(F)(F)F)C[C@H]1c1ccc(F)cc1 [Example 219, (S)-4-((R)-2-(4-fluorophenyl)-4-(2,2,2-trifluoroethyl)piperazin-1-yl)-N-(1,2,4-thiadiazol-5-yl)chromane-7-sulfonamide]
25 | 0.223 µM | CN1CCN([C@H]2CCOc3cc(S(=O)(=O)Nc4ncns4)ccc32)[C@H](c2ccc(F)cc2)C1 [Example 221, (S)-4-((R)-2-(4-fluorophenyl)-4-methylpiperazin-1-yl)-N-(1,2,4-thiadiazol-5-yl)chromane-7-sulfonamide]
26 | 0.174 µM | CCN1CCN([C@H]2CCOc3cc(S(=O)(=O)Nc4ncns4)ccc32)[C@H](c2ccc(F)cc2)C1 [Example 224, (S)-4-((R)-4-ethyl-2-(4-fluorophenyl)piperazin-1-yl)-N-(1,2,4-thiadiazol-5-yl)chromane-7-sulfonamide]
27 | 0.0305 µM | CS(=O)(=O)N1CCN([C@H]2CCOc3cc(S(=O)(=O)Nc4ncns4)ccc32)[C@H](c2ccc(F)cc2)C1 [Example 226, (S)-4-((R)-2-(4-fluorophenyl)-4-(methylsulfonyl)piperazin-1-yl)-N-(1,2,4-thiadiazol-5-yl)chromane-7-sulfonamide]
28 | 0.00495 µM | O=S(=O)(Nc1nncs1)c1cc2c(cc1F)[C@@H](N1CC[C@@H](C(F)(F)F)C[C@H]1c1ccc(F)cc1)CCO2 [Example 231, (S)-6-fluoro-4-((2S,4R)-2-(4-fluorophenyl)-4-(trifluoromethyl)piperidin-1-yl)-N-(1,3,4-thiadiazol-2-yl)chroman-7-sulfonamide]
